From patent publication EP1157997A1, “NOVEL DIPEPTIDE COMPOUND AND MEDICINAL USE THEREOF” (JAPAN ENERGY CORPORATION, priority 1999, dated 2001)

Assays:
[1] = in vitro; assay type: in vitro ADME; settings: human, plasma
Protocol: Freezed human plasma (HFFPP100) was used after thawing. Powder of human alpha 1-acid glycoprotein (supplied by SIGMA Co., hereinafter abbreviated to AAG) was dissolved in a phosphate buffer solution (PBS, pH 7.0) to a concentration of 1 mg/ml. Drug solutions were prepared by dissolving the compounds synthesized in Example 1 and Reference Example 1 in dimethylsulfoxide in various concentrations.
The drug solutions (10 µl, each) with different concentrations were added to 990 µl the plasma or AAG solutions prepared above, stirred well and incubated for 18 hours at 37°C to equilibrate binding proteins. All amount of the solution was transferred to Micropartition Devices (Centrifree® , Millipore Co.) and filtered by centrifugation at 1500 x g for 20 minutes (using TOMY CX-210 high-speed cooling centrifugal machine). 200 µl of the filtrate was directly subjected to HPLC (Type: HITACHI D-7000, column: COSMOSIL (4.6* 250 mm, manufactured by Nacalai Tesque Co., Ltd.). The HPLC analysis was carried out by using a 59:41 (v/v) water-acetonitrile mixture containing 0.1% trifluoroacetic acid (TFA) as a mobile phase and measuring absorbance at 210 nm. The quantitative determination of unbound drug concentration was carried out based on the absolute calibration curve method using a calibration line obtained from the analysis of a standard sample which contains the drug at a known concentration. […]

[2] = tested on: HIV virus (HIV-1 IIIB strain); experiment: Anti-HIV activity, cytopathic effect in CEM-SS cells by XTT dyeing, in the presence of 50% human blood serum; assay type: cell-based; settings: Human immunodeficiency virus 1, IIIB, in the presence of 50% human blood serums, read-out: IC50 value in an anti-virus test
Protocol: The anti-HIV activity of the compounds synthesized Examples 1-15 and Reference Examples 1-4 was measured according to the method reported by O. S. Weislow et al. (J. Natl. Cancer Inst. 81, 577-586, 1989) using CEM-SS cells as host cells and HIV virus (HIV-1 IIIB strain) (see T. Mimoto et al., J. Med. Chem., 42, 1789-1802, 1999, etc.).
Specifically, the compounds synthesized Examples 1-15 and Reference Examples 1-5 in various concentrations were added to a culture medium on 96-well microtiter plates. Human blood serum was added to a final concentration of 50%, then HIV infected CEM-SS cells was added, followed by incubation in a CO2 atmosphere at 37°C for 6 days. The cytopathic effect induced by HIV-1 IIIB was measured by tetrazolium dye XTT dyeing method to evaluate the 50% inhibitory concentration (IC50).

fraction unbound at 18 h, 1 µM [1] | IC50 [2] | Compound
0.029 | 6 ng/mL | COc1ccc(C[C@H](NC(=O)c2cccc(O)c2C)[C@H](O)C(=O)N2CSC(C)(C)[C@H]2C(=O)NCc2ccccc2C)cc1 [Example 1, (R)-N-(2-methylbenzyl)-3-[(2S,3S)-2-hydroxy-3-(3-hydroxy-2-methylbenzoyl)amino-4-(4-methoxyphenyl)butanoyl]-5,5-dimethyl-1,3-thiazolidine-4-carboxamide]
0.013 |  | Cc1ccccc1CNC(=O)[C@H]1N(C(=O)[C@@H](O)[C@H](Cc2ccccc2)NC(=O)c2cccc(O)c2C)CSC1(C)C [Reference Example 1, reference compound]
